Assay: mn = molality of the nth substance listed, in mol/kg
Settings: 298.15 K, 85 kPa, Liquid, Alternating current cell with electrodes

CCCCCCCCCCCCn1cc[n+](C)c1.[Br-] [1-dodecyl-3-methylimidazolium bromide] + O
Settings	electrical conductivity [S/m]
m1 = 0.00123	0.0086
m1 = 0.00244	0.0169
m1 = 0.00361	0.0251
m1 = 0.00476	0.0331
m1 = 0.00588	0.0411
m1 = 0.00698	0.0489
m1 = 0.00805	0.0567
m1 = 0.00909	0.0644
m1 = 0.01011	0.0702
m1 = 0.01111	0.0736
m1 = 0.01209	0.0764
m1 = 0.01304	0.0788
m1 = 0.01398	0.0814
m1 = 0.01489	0.0836
m1 = 0.01579	0.0856
m1 = 0.01667	0.0877
m1 = 0.01753	0.0898
m1 = 0.01837	0.0918
m1 = 0.01919	0.0938
m1 = 0.02	0.0957
m1 = 0.02079	0.0977
m1 = 0.02157	0.0997

CCCCCCCCCCCC[N+](C)(C)C.[Br-] [dodecyltrimethylammonium bromide] + O
Settings	electrical conductivity [S/m]
m1 = 0.00185	0.0125
m1 = 0.00366	0.0246
m1 = 0.00542	0.0367
m1 = 0.00714	0.0487
m1 = 0.00882	0.0609
m1 = 0.01047	0.0731
m1 = 0.01207	0.0856
m1 = 0.01364	0.0976
m1 = 0.01517	0.108
m1 = 0.01667	0.116
m1 = 0.01813	0.121
m1 = 0.01957	0.125
m1 = 0.02097	0.128
m1 = 0.02234	0.132
m1 = 0.02368	0.135
m1 = 0.025	0.138
m1 = 0.02629	0.141
m1 = 0.02755	0.145
m1 = 0.02879	0.148
m1 = 0.03	0.151
m1 = 0.03119	0.154
m1 = 0.03235	0.157
m1 = 0.0335	0.16

O [water] + CCCCCCCCCCCC[N+](C)(C)C.[Br-]
Settings	electrical conductivity [S/m]
m2 = 0	0.00021

O [water] + CCCCCCCCCCCCn1cc[n+](C)c1.[Br-]
Settings	electrical conductivity [S/m]
m2 = 0	0.00024

Source: the NIST ThermoML archive (doi:10.1016/j.jct.2016.10.039)
